# Like-named read-outs stand apart in the source and are kept apart here.
# What was measured:
# [1] = tested on: HCV genotype 1b subgenomic replicon (ET cell line); assay: HCV replicon assay, genotype 1b (luciferase); assay type: cell-based; settings: genotype 1b replicon ET cell line, luciferase activity at 48 hours
# Method: (§1) Protocol for Testing and Data Analysis of Compounds in the HCV Replicon Assay
# (§2) Compounds were assayed for activity against HCV using the genotype 1a and 1b subgenomic replicon model systems. Stable cell lines bearing the genotype 1a and 1b replicons were used for screening of compounds. Both replicons are bicistronic and contain the firefly luciferase gene. The ET cell line is stably transfected with RNA transcripts harboring a I389luc-ubi-neo/NS3-3′/ET replicon with firefly luciferase-ubiquitin-neomycin phosphotransferase fusion protein and EMCV-IRES driven NS3-5B polyprotein containing the cell culture adaptive mutations (E1202G; T1280I; K1846T) (Krieger at al, 2001 and unpublished). The genotype 1a replicon is a stable cell line contains the H77 NS3-5B polyprotein sequence, modified to contain the firefly luciferase gene and encode for neomycin resistance. The genotype 1a replicon contains several adaptive changes (NS4B Q31H, NS5A K68R, NS5A S232I). The cells were grown in DMEM, supplemented with 10% fetal calf serum, 2 mM Glutamine, Penicillin (100 IU/mL)/Streptomycin (100 μg/mL), lx nonessential amino acids, and 250-500 μg/mL G418 (“Geneticin”). They were all available through Life Technologies (Bethesda, Md.). The cells were plated at 5×10^3 cells/well in 384 well plates containing compounds. The final concentration of compounds ranged between 0.03 pM to […] and the final DMSO concentration of 0.5-1%.
# (§3) Luciferase activity was measured 48 hours later by adding a Steady glo reagent (Promega, Madison, Wis.). Percent inhibition of replication data was plotted relative to no compound control. Under the same condition, cytotoxicity of the compounds was determined using cell titer glo (Promega, Madison, Wis.). EC50s were determined from an 11 point dose response curve using 3-4-fold serial dilution for each compound, which spans a concentration range >1000 fold. The level of inhibition for each compound was determined with Activity Base or with BioAssay plus the Excel XC50 module. Percent inhibition was determined with the following equation where the cross-talk corrected value is the value from the test well, the compound positive control mean is the average value of the wells with no compound present, and the DMSO negative control mean is the average value of the wells with DMSO but no cells present.
# (§4) [formula] These normalized values are exported to EC50 where they are plotted against the molar compound concentrations using the standard four parameter logistic equation:
# (§5) [formula] Where: • A=minimum y D=slope factor • B=maximum y x=log10 compound concentration [M] • C=log10EC50 pEC50=−C
# [2] = tested on: HCV genotype 1a subgenomic replicon; assay: HCV replicon assay, genotype 1a (luciferase); assay type: cell-based; settings: read-out: Replicon 1A EC50
# Method: as §1, §2, §3, §4, §5
Compound,EC50 ([1]; Hepatitis C virus),"EC50 ([2]; Hepatitis C virus, 48 h)",EC50 [1],"EC50 ([2]; genotype 1a replicon stable cell line (H77 NS3-5B), luciferase activity at 48 hours)"
"COC(=O)N[C@H](C(=O)N1[C@H](c2ncc(-c3ccc4c(c3)CCc3cc(-c5cnc([C@@H]6C[C@H]7CCC[C@H]7N6C(=O)[C@H](NC(=O)OC)[C@H](C)OC)[nH]5)ccc3-4)[nH]2)C[C@@H]2CCC[C@@H]21)[C@@H](C)OC [Example 6, Dimethyl ((2S,2′S,3R,3′R)-((2S,2′S,3aS,3a′S,6aS,6a′S)-2,2′-(5,5′-(9,10-dihydrophenanthrene-2,7-diyl)bis(1H-imidazole-5,2-diyl))bis(hexahydrocyclopenta[b]pyrrole-2,1(2H)-diyl))bis(3-methoxy-1-oxobutane-2,1-diyl))dicarbamate]",0.016 nM,0.016 nM,–,–
"COC(=O)N[C@H](C(=O)N1[C@@H]2CCC[C@@H]2C[C@H]1c1ncc(-c2ccc3c(c2)C(F)(F)c2cc(-c4cnc([C@@H]5C[C@@H]6CCC[C@@H]6N5C(=O)[C@@H](NC(=O)OC)[C@@H](C)OC)[nH]4)ccc2-3)[nH]1)[C@@H](C)OC [Example 8, Dimethyl ((2S,2′S,3R,3′R)-((2S,2′S,3aS,3a′S,6aS,6a′S)-2,2′-(5,5′-(9,9-difluoro-9H-fluorene-2,7-diyl)bis(1H-imidazole-5,2-diyl))bis(hexahydrocyclopenta[b]pyrrole-2,1(2H)-diyl))bis(3-methoxy-1-oxobutane-2,1-diyl))dicarbamate]",0.016 nM,0.032 nM,–,–
"COC(=O)N[C@H](C(=O)N1[C@H](c2ncc(-c3ccc4c5ccc(-c6cnc([C@@H]7C[C@@H]8CCC[C@@H]8N7C(=O)[C@@H](NC(=O)OC)[C@@H](C)OC)[nH]6)cc5n(C)c4c3)[nH]2)C[C@@H]2CCC[C@@H]21)[C@@H](C)OC [Example 7, dimethyl ((2S,2′S,3R,3′R)-((2S,2′S,3aS,3a′S,6aS,6a′S)-2,2′-(5,5′-(9-methyl-9H-carbazole-2,7-diyl)bis(1H-imidazole-5,2-diyl))bis(hexahydrocyclopenta[b]pyrrole-2,1(2H)-diyl))bis(3-methoxy-1-oxobutane-2,1-diyl))dicarbamate]",–,–,0.032 nM,0.16 nM
"COC(=O)N[C@H](C(=O)N1[C@H](c2ncc(-c3ccc4c(c3)-c3ccc(-c5cnc([C@@H]6C[C@@H]7CCC[C@@H]7N6C(=O)[C@@H](NC(=O)OC)[C@@H](C)OC)[nH]5)cc3-4)[nH]2)C[C@@H]2CCC[C@@H]21)[C@@H](C)OC [Example 2, dimethyl ((2S,2′S,3R,3′R)-((2S,2′S,3aS,3a′S,6aS,6a′S)-2,2′-(5,5′-(biphenylene-2,6-diyl)bis(1H-imidazole-5,2-diyl))bis(hexahydrocyclopenta[b]pyrrole-2,1(2H)-diyl))bis(3-methoxy-1-oxobutane-2,1-diyl))dicarbamate]",0.008 nM,0.01 nM,–,–
COC(=O)N[C@H](C(=O)N1[C@@H]2CCC[C@@H]2C[C@H]1c1ncc(-c2ccc3c(c2)S(=O)(=O)c2cc(-c4cnc([C@@H]5C[C@@H]6CCC[C@@H]6N5C(=O)[C@@H](NC(=O)OC)[C@@H](C)OC)[nH]4)ccc2-3)[nH]1)[C@@H](C)OC [Example 9],0.032 nM,0.08 nM,–,–
"COC(=O)N[C@H](C(=O)N1[C@H](c2ncc(-c3ccc4c(c3)Cc3ccc(-c5cnc([C@@H]6C[C@H]7CCC[C@H]7N6C(=O)[C@H](NC(=O)OC)[C@H](C)OC)[nH]5)cc3C4)[nH]2)C[C@@H]2CCC[C@@H]21)[C@@H](C)OC [Example 5, dimethyl ((2S,2′S,3R,3′R)-((2S,2′S,3aS,3a′S,6aS,6a′S)-2,2′-(5,5′-(9,10-dihydroanthracene-2,6-diyl)bis(1H-imidazole-5,2-diyl))bis(hexahydrocyclopenta[b]pyrrole-2,1(2H)-diyl))bis(3-methoxy-1-oxobutane-2,1-diyl))dicarbamate]",0.02 nM,0.032 nM,–,–
"COC(=O)N[C@H](C(=O)N1[C@@H]2CCC[C@@H]2C[C@H]1c1ncc(-c2ccc3c(c2)Oc2ccc(-c4cnc([C@@H]5C[C@@H]6CCC[C@@H]6N5C(=O)[C@@H](NC(=O)OC)[C@@H](C)OC)[nH]4)cc2O3)[nH]1)[C@@H](C)OC [Example 10, Dimethyl ((2S,2′S,3R,3′R)-((2S,2′S,3aS,3a′S,6aS,6a′S)-2,2′-(5,5′-(dibenzo[b,e][1,4]dioxine-2,7-diyl)bis(1H-imidazole-5,2-diyl))bis(hexahydrocyclopenta[b]pyrrole-2,1(2H)-diyl))bis(3-methoxy-1-oxobutane-2,1-diyl))dicarbamate]",0.01 nM,0.01 nM,–,–
COC(=O)N[C@H](C(=O)N1[C@H](c2ncc(-c3ccc4c(c3)-c3ccc(-c5cnc([C@@H]6C[C@@H]7CCC[C@@H]7N6C(=O)[C@@H](NC(=O)OC)[C@@H](C)O)[nH]5)cc3-4)[nH]2)C[C@@H]2CCC[C@@H]21)[C@@H](C)O [Example 1],0.006 nM,0.011 nM,–,–
"COC(=O)N[C@H](C(=O)N1[C@H](c2nc(-c3ccc4c(c3)-c3ccc(-c5c[nH]c([C@@H]6C[C@@H]7CCC[C@@H]7N6C(=O)[C@@H](NC(=O)OC)[C@@H](C)OC)n5)cc3-4)c[nH]2)C[C@@H]2CCC[C@@H]21)[C@@H](C)O [Example 3, Methyl [(1S,2R)-1-{[(2S,3aS,6aS)-2-[4-(6-{2-[(2S,3aS,6aS)-1-((2S,3R)-3-hydroxy-2-{[(methyloxy)carbonyl]amino}butanoyl)octahydrocyclopenta[b]pyrrol-2-yl]-1H-imidazol-4-yl}-2-biphenylenyl)-1H-imidazol-2-yl]hexahydrocyclopenta[b]pyrrol-1(2H)-yl]carbonyl}-2-(methyloxy)propyl]carbamate]",0.008 nM,0.013 nM,–,–
COC(=O)N[C@H](C(=O)N1[C@H](c2ncc(-c3ccc4c(c3)Cc3cc(-c5cnc([C@@H]6C[C@H]7CCC[C@H]7N6C(=O)[C@H](NC(=O)OC)[C@H](C)OC)[nH]5)ccc3-4)[nH]2)C[C@@H]2CCC[C@@H]21)[C@@H](C)OC [Example 4],0.02 nM,0.04 nM,–,–
